{"source": "patent US8986733B2", "about": "“Materials and methods for nerve repair” (University of Florida Research Foundation, Inc., priority 2001, dated 2015)", "key": {"[1]": {"tested_on": "rat sciatic nerve", "assay": "Human-to-rat acellular nerve xenograft model, GAP-43 axon scoring", "format": "in vivo", "conditions": "8-day acellular human nerve xenografts in rat", "source_text": "Human nerve fascicles (of similar diameter to the rat sciatic nerve) were grafted into a gap made in the rat sciatic nerve. Serial sections of the 8-day interpositional nerve xenografts were scored for GAP-43-labeled axonal profiles by digital image analysis. Data represent the means (−SEM) of 2 vehicle-treated and 2 chondroitinase-treated grafts assessed at the specified distances into the graft (proximal to distal).\nIn the following experiments, the hypothesis that chondroitinase treatment improves nerve regeneration through acellular human nerve grafts in a rat xenograft model was tested. Subunits (individual fascicles) taken from human nerves were treated en bloc with vehicle or chondroitinase ABC. Ten-mm interpositional nerve grafts were joined to the rat host sciatic nerve by epineurial neurorrhaphy reinforced with fibrin glue. Each of 2 host rats received bilateral grafts, one vehicle-treated and one chondroitinase-treated graft. Regeneration was initially examined after 8 days. Axonal growth was assessed at specified spatial intervals within the graft by scoring GAP-43-immunopositive profiles in transverse sections."}, "[2]": {"tested_on": "CSPG", "assay": "CSPG-neoepitope immunolabeling of injured sciatic nerve after in vivo injection", "set-up": "species or system rat", "conditions": "single injection 1 U in 2 μl, 2 mm distal to injury; 4 days (transection) or 2 days (crush)", "experimental": "Surgical procedures for nerve transection and nerve crush experiments. All surgical procedures were performed according to Institutional Animal Care and Use Committee (IACUC) approved protocols. Young adult SPRAGUE DAWLEY rats (HARLAN Indianapolis, Ind.) were deeply anesthetized with xylazine (15 mg/kg, i.m.) followed by ketamine-HCl (110 mg/kg, i.p.). Six animals received bilateral nerve crush injuries. Sciatic nerves were exposed and then crushed with firm pressure for thirty seconds with a DUMONT #5 forceps at a site 4 mm distal to the tendon of the internal obdurator. The crush site was marked with an epineurial suture. In a separate set of experiments, eight rats received bilateral sciatic nerve transection injuries using serrated scissors. The proximal and distal stumps were […] by epineurial neurorrhaphy using 9-0 ETHILON sutures. Fibrin glue (fibrinogen and thrombin) was then applied to stabilize the union. In both injury models, the right sciatic nerves were injected 2-mm distal to the injury with chondroitinase ABC (1 U in 2 μl) (high-purity, protease-free; SIGMA CHEMICAL CO., St. Louis, Miss.). Left sciatic nerves (with the same injury as the right side) were injected with vehicle alone (0.1% bovine serum albumin in PBS). […]\nImmunocytochemistry. Axonal regeneration was assessed by GAP-43 immunofluorescence and digital image analysis. […]"}}}
{"substance": "chondroitinase ABC", "values": [{"measurement": "average number of axons (GAP-43-immunopositive profiles) entering grafts vs control grafts", "setting": "[1]", "value": "more than three-fold greater"}, {"measurement": "CSPG degradation in extracellular matrix around injection site", "setting": "[2]", "value": "substantially, if not completely, degraded CSPG"}]}
